Assay results from patent US7135479B2, “Antidepressant azaheterocyclylmethyl derivatives of heterocycle-fused benzodioxans” (Wyeth, priority 2002, dated 2006).
Counter-ions that a name gives are not always drawn. Like-named read-outs stand apart in the source and are kept apart here.

Legend:
serotonin transporter = target: T1, serotonin transporter (Rattus norvegicus, UniProt P31652); test: 3H-paroxetine displacement from male rat frontal cortical membranes (affinity for the serotonin transporter); assay type: binding; details: read-out: 5-HT Transporter Affinity KI
T1 construct: displace ^3H-paroxetine from male rat frontal cortical membranes; from tissue; host or cells: male rat frontal cortex membranes

human 5-HT1A receptors = target: T2, human 5-HT1A receptors (Homo sapiens, UniProt P08908); test: [3H] 8-OHDPAT displacement from 5-HT1A receptor, CHO cells stably transfected with human 5-HT1A receptors; assay type: binding; details: read-out: 5-HT1A Function KI
T2 construct: expressed in transfected cells; host or cells: CHO cells
T2 sequence (P08908 1-422): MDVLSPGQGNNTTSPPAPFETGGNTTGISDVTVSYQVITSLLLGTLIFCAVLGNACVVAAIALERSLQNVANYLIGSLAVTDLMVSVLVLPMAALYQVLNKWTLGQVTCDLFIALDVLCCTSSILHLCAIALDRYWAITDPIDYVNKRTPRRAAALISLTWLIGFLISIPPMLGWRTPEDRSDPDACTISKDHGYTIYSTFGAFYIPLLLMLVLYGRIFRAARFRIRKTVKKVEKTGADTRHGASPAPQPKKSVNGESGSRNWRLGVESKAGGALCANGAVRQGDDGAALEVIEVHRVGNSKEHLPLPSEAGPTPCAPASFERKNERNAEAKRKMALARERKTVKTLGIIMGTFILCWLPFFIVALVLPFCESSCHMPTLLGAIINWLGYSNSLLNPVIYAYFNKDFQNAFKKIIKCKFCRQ
From the text: High affinity for the serotonin 5-HT1A receptor was established by testing the claimed compound's ability to displace [^3H] 8-OHDPAT (dipropylaminotetralin) from the 5-HT1A serotonin receptor following a modification of the procedure of Hall et al., J. Neurochem. 44, 1685 (1985) which utilizes CHO cells stably transfected with human 5-HT1A receptors.

[1] = target: T3, cloned human 5-HT1A receptors (Homo sapiens, UniProt P08908); test: 35S-GTPγS binding assay, antagonist activity at 5-HT1A receptors; assay type: biochemical; details: for IC50: potency in reversing the effects of the standard agonist 8-OHDPAT, read-out: 5-HT1A Receptor Affinity IC50 (nM) (Imax): IC50; for Emax: read-out: 5-HT1A Receptor Affinity IC50 (nM) (Imax): Imax
T3 construct: expressed in transfected cells
T3 sequence (P08908 1-422): T2 sequence (P08908 1-422)
Procedure: Antagonist activity at 5-HT1A receptors was established by using a ^35S-GTPγS binding assay similar to that used by Lazareno and Birdsall (Br. J. Pharmacol. 109: 1120, 1993), in which the test compound's ability to affect the binding of ^35S-GTPγS to membranes containing cloned human 5-HT1A receptors was determined. Agonists produce an increase in binding whereas antagonists produce no increase but rather reverse the effects of the standard agonist 8-OHDPAT. The test compound's maximum inhibitory effect is represented as the Imax, while its potency is defined by the IC50.

[2] = value in brackets, maximum inhibitory effect

T1 sequence (P31652 whole entry): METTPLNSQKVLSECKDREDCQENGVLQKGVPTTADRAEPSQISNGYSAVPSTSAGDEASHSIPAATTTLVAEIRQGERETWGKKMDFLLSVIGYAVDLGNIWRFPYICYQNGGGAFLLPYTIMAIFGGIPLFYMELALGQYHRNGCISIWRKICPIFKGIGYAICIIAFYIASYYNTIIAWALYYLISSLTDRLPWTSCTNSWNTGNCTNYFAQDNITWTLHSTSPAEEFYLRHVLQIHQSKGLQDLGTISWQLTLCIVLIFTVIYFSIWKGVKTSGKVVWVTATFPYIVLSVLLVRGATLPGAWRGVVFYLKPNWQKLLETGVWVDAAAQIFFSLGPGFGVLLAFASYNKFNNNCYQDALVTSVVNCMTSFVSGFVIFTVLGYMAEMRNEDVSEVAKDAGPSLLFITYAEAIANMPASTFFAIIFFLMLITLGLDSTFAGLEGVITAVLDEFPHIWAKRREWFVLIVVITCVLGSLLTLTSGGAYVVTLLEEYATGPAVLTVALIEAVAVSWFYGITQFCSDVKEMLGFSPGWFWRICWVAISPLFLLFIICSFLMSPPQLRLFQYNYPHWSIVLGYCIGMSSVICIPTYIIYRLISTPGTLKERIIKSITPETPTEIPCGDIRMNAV

| melting point | Ki (serotonin transporter) | Ki (human 5-HT1A receptors) | IC50 [1] | Emax [1, 2] | Compound | Emax [1] |
| --- | --- | --- | --- | --- | --- | --- |
| 140 to 142 °C |  |  |  |  | Cc1ccc2c3c(ccc2n1)OC[C@H](CN1CCC(Cn2ccc4ccc(F)cc42)CC1)O3 (as salt: fumarate) [Example 6] |  |
| 178 to 180 °C |  |  |  |  | Cc1ccc2c3c(ccc2n1)OC[C@H](CN1CCC(Cn2ccc4ccc(C#N)cc42)CC1)O3 (as salt: fumarate) [Example 8] |  |
| 125 °C (dec.) |  |  |  |  | Cc1ccc2c3c(ccc2n1)OCC(CN1CC(Cc2c[nH]c4ccc(F)cc24)C1)O3 (stereo not shown) (as salt: hydrochloride) [Example 1, 2-[3-(5-Fluoro-1H-indol-3-ylmethyl)-azetidin-1-ylmethyl]-8-methyl-2,3-dihydro-[1,4]dioxino[2,3-f]quinoline] |  |
| 68 °C (dec.) |  |  |  |  | Cc1ccc2c3c(ccc2n1)OCC(CN1CCCC(Cc2c[nH]c4ccc(F)cc24)C1)O3 (stereo not shown) (as salt: hydrochloride) [Example 2, 2-[3-(5-Fluoro-1H-indol-3-ylmethyl)-piperidin-1-ylmethyl]-8-methyl-2,3-dihydro-[1,4]dioxino[2,3-f]quinoline] |  |
| > 250 °C |  |  |  |  | CCc1ccc2c3c(ccc2n1)OC[C@H](CN1CCC(Cn2ccc4ccc(F)cc42)CC1)O3 (as salt: hydrochloride) [Example 7] |  |
| 115 °C (dec.) |  |  |  |  | Cc1ccc2c3c(ccc2n1)OCC(CN1CC(CCn2ccc4ccc(F)cc42)C1)O3 (stereo not shown) (as salt: hydrochloride) [Example 10, 2-{3-[2-(6-Fluoro-indol-1-yl)-ethyl]-azetidin-1-ylmethyl}-8-methyl-2,3-dihydro-[1,4]dioxino[2,3-f]quinoline] |  |
| 144 °C (dec.) |  |  |  |  | Cc1ccc2c3c(ccc2n1)OC[C@H](CN1CC(CCn2ccc4ccc(C#N)cc42)C1)O3 (as salt: hydrochloride) [Example 11, 1-{2-[1-(8-Methyl-2,3-dihydro-[1,4]-dioxino[2,3-f]quinolin-2-ylmethyl)-azetinin-3-yl]-ethyl}-1H-indole-6-carbonitrile] |  |
| 193 to 195 °C |  |  |  |  | Cc1ccc2c3c(ccc2n1)OC[C@H](CN1CC(Cc2cn(C)c4ccc(F)cc24)C1)O3 (as salt: oxalate) [Example 5] |  |
| 50 °C (dec.) |  |  |  |  | Cc1ccc2c3c(ccc2n1)OCC(CN1CCCC(Cc2c[nH]c4cc(F)ccc24)C1)O3 (stereo not shown) (as salt: salt) [Example 3, 2-[3-(6-Fluoro-1H-indol-3-ylmethyl)-piperidin-1-ylmethyl]-8-methyl-2,3-dihydro-[1,4]dioxino[2,3-f]quinoline] |  |
| 138 °C (dec.) |  |  |  |  | Cc1ccc2c3c(ccc2n1)OCC(CN1CC(Cn2ccc4ccc(F)cc42)C1)O3 (stereo not shown) (as salt: salt) [Example 9, 2-[3-(6-Fluoro-indol-1-ylmethyl)-azetidin-1-ylmethyl]-8-methyl-2,3-dihydro-[1,4]dioxino[2,3-f]quinoline] |  |
|  | 1.29 nM | 2.5 nM | 59.5 nM | 73.7% | Cc1ccc2c3c(ccc2n1)OCC(CN1CC(Cc2c[nH]c4ccc(F)cc24)C1)O3 (stereo not shown) [Example 1, 2-[3-(5-Fluoro-1H-indol-3-ylmethyl)-azetidin-1-ylmethyl]-8-methyl-2,3-dihydro-[1,4]dioxino[2,3-f]quinoline] |  |
|  | 15.3 nM | 3.3 nM | 552 nM | 100% | Cc1ccc2c3c(ccc2n1)OCC(CN1CCCC(Cc2c[nH]c4ccc(F)cc24)C1)O3 (stereo not shown) [Example 2, 2-[3-(5-Fluoro-1H-indol-3-ylmethyl)-piperidin-1-ylmethyl]-8-methyl-2,3-dihydro-[1,4]dioxino[2,3-f]quinoline] |  |
|  | 15.1 nM | 3.4 nM | 666 nM | 100% | Cc1ccc2c3c(ccc2n1)OCC(CN1CCCC(Cc2c[nH]c4cc(F)ccc24)C1)O3 (stereo not shown) [Example 3, 2-[3-(6-Fluoro-1H-indol-3-ylmethyl)-piperidin-1-ylmethyl]-8-methyl-2,3-dihydro-[1,4]dioxino[2,3-f]quinoline] |  |
|  | 0.72 nM | 16.7 nM | 34.5 nM | 96.3% | Cc1ccc2c3c(ccc2n1)OC[C@H](CN1CC(Cc2cn(C)c4ccc(F)cc24)C1)O3 [Example 5] |  |
|  | 1.01 nM | 9.55 nM | 242 nM | 85.5% | Cc1ccc2c3c(ccc2n1)OC[C@H](CN1CCC(Cn2ccc4ccc(F)cc42)CC1)O3 [Example 6] |  |
|  | 1.61 nM | 15.2 nM | 208 nM | 81.5% | CCc1ccc2c3c(ccc2n1)OC[C@H](CN1CCC(Cn2ccc4ccc(F)cc42)CC1)O3 [Example 7] |  |
|  | 0.6 nM | 6.56 nM | 243 nM | 100% | Cc1ccc2c3c(ccc2n1)OC[C@H](CN1CCC(Cn2ccc4ccc(C#N)cc42)CC1)O3 [Example 8] |  |
|  | 0.11 nM | 55 nM |  |  | Cc1ccc2c3c(ccc2n1)OCC(CN1CC(Cn2ccc4ccc(F)cc42)C1)O3 (stereo not shown) [Example 9, 2-[3-(6-Fluoro-indol-1-ylmethyl)-azetidin-1-ylmethyl]-8-methyl-2,3-dihydro-[1,4]dioxino[2,3-f]quinoline] |  |
|  | 4.26 nM | 1.9 nM | 343 nM | 80% | Cc1ccc2c3c(ccc2n1)OCC(CN1CC(CCn2ccc4ccc(F)cc42)C1)O3 (stereo not shown) [Example 10, 2-{3-[2-(6-Fluoro-indol-1-yl)-ethyl]-azetidin-1-ylmethyl}-8-methyl-2,3-dihydro-[1,4]dioxino[2,3-f]quinoline] |  |
|  | 2.86 nM | 1.52 nM | 251 nM | 85% | Cc1ccc2c3c(ccc2n1)OC[C@H](CN1CC(CCn2ccc4ccc(C#N)cc42)C1)O3 [Example 11, 1-{2-[1-(8-Methyl-2,3-dihydro-[1,4]-dioxino[2,3-f]quinolin-2-ylmethyl)-azetinin-3-yl]-ethyl}-1H-indole-6-carbonitrile] |  |
|  | 1.04 nM |  | 38.6 nM | 89.5% | Cc1ccc2[nH]cc(CC3CN(C[C@H]4COc5ccc6nc(C)ccc6c5O4)C3)c2c1 [Example 12, 8-Methyl-2-[3-(5-methyl-1H-indol-3-ylmethyl)-azetidin-1-ylmethyl]-2,3-dihydro-[1,4]dioxino[2,3-f]quinoline] |  |

| Compound | melting point | Ki (serotonin transporter) | Ki (human 5-HT1A receptors) | IC50 [1] | Emax [1, 2] | Emax [1] |
| --- | --- | --- | --- | --- | --- | --- |
| Cc1ccc2c3c(ccc2n1)OCC(CN1CC(Cc2c[nH]c4ccccc24)C1)O3 (stereo not shown) [Example 4, 2-[3-(1H-Indol-3-ylmethyl)-azetidin-1-ylmethyl]-8-methyl-2,3-dihydro-[1,4]dioxino[2,3-f]quinoline] |  | 0.56 nM | 9.2 nM | 37.2 nM |  | 76.4% |
